In patent US7709478B2, “Acylated 6,7,8,9-tetrahydro-5H-benzocycloheptenyl amines and their use as pharmaceutical agents” (sanofi-aventis Deutschland GmbH, priority 2001, dated 2010):
Counter-ions that a name gives are not always drawn.

System: eNOS promoter
Assay: Activation of eNOS transcription (eNOS promoter-luciferase reporter gene assay)
Assay type: cell-based, human
Conditions: 18 h incubation; for EC50: EC50 of transcription induction ratio vs compound concentration, determined graphically, human endothelial cell line stably transfected with eNOS promoter-luciferase construct; for maximal fold induction / TIR(max): maximum transcription induction ratio (luciferase activity with compound / solvent alone), human endothelial cell line with eNOS promoter-luciferase construct; for maximal fold induction: read-out: TIR(max)
Description: Measurement of Activation of eNOS Transcription
Activation of eNOS transcription was measured as described in detail in Li et al. “Activation of protein kinase C alpha and/or epsilon enhances transcription of the human endothelial nitric oxide synthase gene”, Mol. Pharmacol. 1998; 53: 630-637.
Briefly, a 3.5 kB long fragment 5′ of the starting codon of the eNOS gene was cloned, sequenced and cloned in firefly luciferase expression plasmids to monitor activation of the eNOS promoter by reporter gene activity. A human endothelial cell line stable transfected and expressing this promoter-reporter construct was used for compound testing. Cells were incubated for 18 h with compounds.
All compounds were dissolved in sterile DMSO. A final concentration of 0.5% DMSO in complete medium was allowed. Induction of reporter gene expression in these cells was measured using a standard luciferase assay system (Promega, Cat. No E150) according to the manufacturer's instructions. Luciferase induction in cells incubated with compounds were compared to those incubated with solvent alone. The ratio of both activities (transcription induction ratio, TIR) was plotted as a function of compound concentration. Typically, TIR values started at low concentrations at a ratio of 1, indicating no compound effect, and extended up to a maximum TIR value TIR(max) which indicates the increase of the eNOS transcription. EC50 values of transcription induction ratios as a function of compound concentration were determined graphically.

SMILES | EC50 [nM] | maximal fold induction | TIR(max)
CN1CC(=O)Nc2cc(C(=O)NC3CCCc4ccccc4C3)ccc21 (stereo not shown) [Compound 127, 1-METHYL-3-OXO-1,2,3,4-TETRAHYDRO-QUINOXALINE-6-CARBOXYLIC ACID (6,7,8,9-TETRAHYDRO-5H-BENZOCYCLOHEPTEN-6-YL)-AMIDE] | 4900 | 2.7 | –
O=C(NC1CCCc2ccccc2C1)c1ccc(N2CCCC2)nc1 (stereo not shown) [Compound 82, 6-PYRROLIDIN-1-YL-N-(6,7,8,9-TETRARYDRO-5H-BENZOCYCLOHEPTEN-6-YL)-NICOTINAMIDE] | 283 | – | 3.2
O=C(NC1CCCc2ccccc2C1)c1cnn(-c2ccccc2)c1C(F)(F)F (single isomer, unassigned) [Compound 35, 1-PHENYL-5-TRIFLUOROMETHYL-1H-PYRAZOLE-4-CARBOXYLIC ACID (6,7,8,9-TETRAHYDRO-5H-BENZOCYCLOHEPTEN-6-YL)-AMIDE] | 3300 | – | 3.5
Cc1cc(C(=O)NC2CCCc3ccccc3C2)c(C)n1Cc1ccncc1 (single isomer, unassigned; (-)) [Compound 48, (−)-2,5-DIMETHYL-1-PYRIDIN-4-YLMETHYL-1H-PYRROLE-3-CARBOXYLIC ACID (6,7,8,9-TETRAHYDRO-5H-BENZOCYCLOHEPTEN-6-YL)-AMIDE] | 590 | – | 3.4
COCc1ccc(C(=O)N[C@H]2CCCc3ccccc3C2)cn1 [Compound 133, (S)-6-METHOXYMETHYL-N-(6,7,8,9-TETRAHYDRO-5H-BENZOCYCLOHEPTEN-6-YL)-NICOTINAMIDE] | 128 | 3.1 | –
Cc1nc(C2CC2)sc1C(=O)N[C@H]1CCCc2ccccc2C1 [Compound 120, (S)-2-CYCLOPROPYL-4-METHYL-THIAZOLE-5-CARBOXYLIC ACID (6,7,8,9-TETRAHYDRO-5H-BENZOCYCLOHEPTEN-6-YL)-AMIDE] | 41 | 3.1 | –
O=C(NC1CCCc2ccccc2C1)c1ccc(Cl)nc1Cl (stereo not shown) [Compound 70, 2,6-DICHLORO-N-(6,7,8,9-TETRAHYDRO-5H-BENZOCYCLOHEPTEN-6-YL)-NICOTINAMIDE] | 2000 | 3.1 | –
Cc1nc(C(F)(F)F)ccc1C(=O)NC1CCCc2ccccc2C1 (single isomer, unassigned) [Compound 39, 2-METHYL-N-(6,7,8,9-TETRAHYDRO-5H-BENZOCYCLOHEPTEN-6-YL)-6-TRIFLUOROMETHYL-NICOTINAMIDE] | 496 | 2.9 | –
Cc1cc(C(=O)NC2CCCc3ccccc3C2)c(C)n1-c1ccccc1 (stereo not shown) [Compound 96, 2,5-DIMETHYL-1-PHENYL-1H-PYRROLE-3-CARBOXYLIC ACID (6,7,8,9-TETRAHYDRO-5H-BENZOCYCLOHEPTEN-6-YL)-AMIDE] | 20 | 3 | –
CCSc1ncc(C(=O)NC2CCCc3ccccc3C2)c(N)n1 (stereo not shown) [Compound 74, 4-AMINO-2-ETHYLSULFANYL-PYRIMIDINE-5-CARBOXYLIC ACID (6,7,8,9-TETRAHYDRO-5H-BENZOCYCLOHEPTEN-6-YL)-AMIDE] | 34000 | 3.1 | –
CS(=O)(=O)Nc1cccc(C(=O)NC2CCCc3ccccc3C2)c1 (stereo not shown) [Compound 97, 3-METHANESULFONYLAMINO-N-(6,7,8,9-TETRAHYDRO-5H-BENZOCYCLOHEPTEN-6-YL)-BENZAMIDE] | 1000 | 2.5 | –
Cc1cnc(C(=O)NC2CCCc3ccccc3C2)cn1 (single isomer, unassigned) [Compound 33, 5-METHYL-PYRAZINE-2-CARBOXYLIC ACID (6,7,8,9-TETRAHYDRO-5H-BENZOCYCLOHEPTEN-6-YL)-AMIDE] | 3300 | – | 2.6
COc1ccc(C(=O)N[C@H]2CCCc3ccccc3C2)cn1 [Compound 130, (S)-6-METHOXY-N-(6,7,8,9-TETRAHYDRO-5H-BENZOCYCLOHEPTEN-6-YL)-NICOTINAMIDE] | 110 | 3.1 | –
O=C(NC1CCCc2ccccc2C1)c1ccc(F)cc1 (single isomer, unassigned; (-)) [Compound 1a, (−)-4-Fluoro-N-(6,7,8,9-tetrahydro-5H-benzocyclohepten-6-yl)-benzamide] | 1 | – | 3.2
Cc1nc(C)c(C(=O)NC2CCCc3ccccc3C2)o1 (stereo not shown) [Compound 58, 2,4-DIMETHYL-OXAZOLE-5-CARBOXYLIC ACID (6,7,8,9-TETRAHYDRO-5H-BENZOCYCLOHEPTEN-6-YL)-AMIDE] | 19000 | 2.5 | –
CNc1cncc(C(=O)NC2CCCc3ccccc3C2)n1 (stereo not shown) [Compound 76, 6-METHYLAMINO-PYRAZINE-2-CARBOXYLIC ACID (6,7,8,9-TETRAHYDRO-5H-BENZOCYCLOHEPTEN-6-YL)-AMIDE] | 572 | 3.1 | –

SMILES | EC50 [nM] | maximal fold induction | TIR(max)
Cc1cc(C)c(C(=O)NC2CCCc3ccccc3C2)c(N)n1 (stereo not shown) [Compound 56, 2-AMINO-4,6-DIMETHYL-N-(6,7,8 9-TETRAHYDRO-5H-BENZOCYCLOHEPTEN-6-YL)-NICOTINAMIDE] | 168 | – | 3
Nc1cccnc1C(=O)NC1CCCc2ccccc2C1 (stereo not shown) [Compound 144, 3-AMINO-PYRIDINE-2-CARBOXYLIC ACID (6,7,8,9-TETRAHYDRO-5H-BENZOCYCLOHEPTEN-6-YL)-AMIDE] | 10 | 2.9 | –
Cc1ncccc1C(=O)NC1CCCc2ccccc2C1 (single isomer, unassigned) [Compound 26, 2-METHYL-N-(6,7,8,9-TETRAHYDRO-5H-BENZOCYCLOHEPTEN-6-YL)-NICOTINAMIDE] | 1800 | 3.1 | –
O=C(NC1CCCc2ccccc2C1)c1ccc(F)cc1 (single isomer, unassigned; (+)) [Compound 1b, (+)-4-Fluoro-N-(6,7,8,9-tetrahydro-5H-benzocyclohepten-6-yl)-benzamide] | 6000 | – | 2.9
O=C(NC1CCCc2ccccc2C1)c1ccnc(N2CCCC2)c1 (single isomer, unassigned; (+)) [Compound 149, (+)-2-PYRROLIDIN-1-YL-N-(6,7,8,9-TETRAHYDRO-5H-BENZOCYCLOHEPTEN-6-YL)-ISONICOTINAMIDE] | 3400 | 3 | –
Cc1nc2cc(C(=O)N[C@H]3CCCc4ccccc4C3)ccc2[nH]1 [Compound 36, (S)-2-METHYL-1H-BENZOIMIDAZOLE-5-CARBOXYLIC ACID (6,7,8,9-TETRAHYDRO-5H-BENZOCYCLOHEPTEN-6-YL)-AMIDE HYDROCHLORIDE] | 50 | 3.3 | –
Cc1cc(Cl)ccc1C(=O)NC1CCCc2ccccc2C1 (stereo not shown) [Compound 3, 4-CHLORO-2-METHYL-N-(6,7,8,9-TETRAHYDRO-5H-BENZOCYCLOHEPTEN-6-YL)-BENZAMIDE] | < 80 | 2.2 | –
Nc1ncccc1C(=O)NC1CCCc2ccccc2C1 (stereo not shown) [Compound 25, 2-AMINO-N-(6,7,8,9-TETRAHYDRO-5H-BENZOCYCLOHEPTEN-6-YL)-NICOTINAMIDE HYDROCHLORIDE] | 31 | 3.1 | –
Cc1cc(C(=O)NC2CCCc3ccccc3C2)c(C)n1Cc1ccncc1 (single isomer, unassigned; (+)) [Compound 47, (+)-2,5-DIMETHYL-1-PYRIDIN-4-YLMETHYL-1H-PYRROLE-3-CARBOXYLIC ACID (6,7,8,9-TETRAHYDRO-5H-BENZOCYCLOHEPTEN-6-YL)-AMIDE] | 20 | 3.4 | –
Cc1cnc(C(=O)NC2CCCc3ccccc3C2)c(N)n1 (stereo not shown) [Compound 59, 3-AMINO-5-METHYL-PYRAZINE-2-CARBOXYLIC ACID (6,7,8,9-TETRAHYDRO-5H-BENZOCYCLOHEPTEN-6-YL)-AMIDE] | 19 | 3.2 | –
O=C(N[C@H]1CCCc2ccccc2C1)c1ccc(OCC(F)(F)F)cc1 [Compound 125, (S)—N-(6,7,8,9-TETRAHYDRO-5H-BENZOCYCLOHEPTEN-6-YL)-4-(2,2,2-TRIFLUORO-ETHOXY)-BENZAMIDE] | 40 | 3 | –
Nc1nc(Cl)ccc1C(=O)NC1CCCc2ccccc2C1 (stereo not shown) [Compound 137, 2-AMINO-6-CHLORO-N-(6,7,8,9-TETRAHYDRO-5H-BENZOCYCLOHEPTEN-6-YL)-NICOTINAMIDE] | 90 | 3 | –
Cc1c(C(=O)NC2CCCc3ccccc3C2)cnn1-c1ccccc1 (single isomer, unassigned) [Compound 31, 5-METHYL-1-PHENYL-1H-PYRAZOLE-4-CARBOXYLIC ACID (6,7,8,9-TETRAHYDRO-5H-BENZOCYCLOHEPTEN-6-YL)-AMIDE] | 5000 | 2.8 | –
O=C(N[C@H]1CCCc2ccccc2C1)c1cccc(N2CCCC2)c1 [Compound 132, (S)-3-PYRROLIDIN-1-YL-N-(6,7,8,9-TETRAHYDRO-5H-BENZOCYCLOHEPTEN-6-YL)-BENZAMIDE] | 50 | 3.1 | –
Cc1ccc(C(=O)N[C@H]2CCCc3ccccc3C2)cc1N(C)C [Compound 131, (S)-3-DIMETHYLAMINO-4-METHYL-N-(6,7,8,9-TETRAHYDRO-5H-BENZOCYCLOHEPTEN-6-YL)-BENZAMIDE] | 440 | 3.1 | –
O=C(NC1CCCc2ccccc2C1)c1cccc2[nH]ccc12 (stereo not shown) [Compound 12, 1H—INDOLE-4-CARBOXYLIC ACID (6,7,8,9-TETRAHYDRO-5H-BENZOCYCLOHEPTEN-6-YL)-AMIDE] | 136 | 3 | –
